# From paper PMC5007552, “The hVps34‐SGK3 pathway alleviates sustained PI3K/Akt inhibition by stimulating mTORC1 and tumour growth” (The EMBO Journal, 2016)
# Values joined by “and” are separate entries in the source; they are usually repeats but may differ in a detail not shown here. Equal entries are not always repeated.
# Tested on: ZR-75-1 cells
# Test: NanoString human kinome mRNA quantification
# Assay type: cell-based
# Source text: Human mRNAs were hybridised to NanoString human kinome and control code sets, then subjected to quantification using NanoString software. […] To permit data compaction, and simple kinome‐wide comparisons, the fold changes are log2 transformed. […] Cell pellets were resuspended at a concentration of ~6,500 cells/μl in RLT buffer (Qiagen). […] For total copy numbers, triplicate normalised count values were averaged, and to calculate fold induction, means were divided by triplicate mean values from matched DMSO controls. P‐values were calculated using unpaired t‐test (GraphPad Prism software) by employing treated and control count data for each kinase mRNA.
smiles,measurement,setting,value
NC1(c2ccc(-c3nc4ccn5c(=O)[nH]nc5c4cc3-c3ccccc3)cc2)CCC1 [MK-2206],MAP2K6 Normalised counts (single replicates),"MAP2K6 mRNA, replicates 1-3",273.54 and 301.57
same,MAP2K7 Normalised counts Average,"MAP2K7 mRNA, average of 3",452.7
same,MAP2K7 Normalised counts (single replicates),"MAP2K7 mRNA, replicates 1-3",481.41 and 429.05 and 447.64
same,MAP3K1 Normalised counts Average,"MAP3K1 mRNA, average of 3",914.477
same,MAP3K1 Normalised counts (single replicates),"MAP3K1 mRNA, replicates 1-3",890.44 and 933.79 and 919.2
same,MAP3K2 Normalised counts Average,"MAP3K2 mRNA, average of 3",686.32
same,MAP3K2 Normalised counts (single replicates),"MAP3K2 mRNA, replicates 1-3",635.93 and 734.85 and 688.18
same,MAP3K3 Normalised counts Average,"MAP3K3 mRNA, average of 3",686.967
same,MAP3K3 Normalised counts (single replicates),"MAP3K3 mRNA, replicates 1-3",685.93 and 665.35 and 709.62
same,MAP3K4 Normalised counts Average,"MAP3K4 mRNA, average of 3",878.993
same,MAP3K4 Normalised counts (single replicates),"MAP3K4 mRNA, replicates 1-3",874.08 and 929.44 and 833.46
same,MAP3K5 Normalised counts Average,"MAP3K5 mRNA, average of 3",52.5933
same,MAP3K5 Normalised counts (single replicates),"MAP3K5 mRNA, replicates 1-3",46.02 and 55.49 and 56.27
same,MAP3K6 Normalised counts Average,"MAP3K6 mRNA, average of 3",449.24
same,MAP3K6 Normalised counts (single replicates),"MAP3K6 mRNA, replicates 1-3",420.51 and 453.37 and 473.84
same,MAP3K7 Normalised counts Average,"MAP3K7 mRNA, average of 3",743.277
same,MAP3K7 Normalised counts (single replicates),"MAP3K7 mRNA, replicates 1-3",716.83 and 700.97 and 812.03
same,MAP3K8 Normalised counts Average,"MAP3K8 mRNA, average of 3",26.4033
same,MAP3K8 Normalised counts (single replicates),"MAP3K8 mRNA, replicates 1-3",26.93 and 28.56 and 23.72
same,MAP3K9 Normalised counts Average,"MAP3K9 mRNA, average of 3",379.6
same,MAP3K9 Normalised counts (single replicates),"MAP3K9 mRNA, replicates 1-3",365.97 and 402.99 and 369.84
same,MAP3K10 Normalised counts Average,"MAP3K10 mRNA, average of 3",168.847
same,MAP3K10 Normalised counts (single replicates),"MAP3K10 mRNA, replicates 1-3",162.36 and 182.33 and 161.85
same,MAP3K11 Normalised counts Average,"MAP3K11 mRNA, average of 3",121.413
same,MAP3K11 Normalised counts (single replicates),"MAP3K11 mRNA, replicates 1-3",113.28 and 123.25 and 127.71
same,MAP3K12 Normalised counts Average,"MAP3K12 mRNA, average of 3",52.4667
same,MAP3K12 Normalised counts (single replicates),"MAP3K12 mRNA, replicates 1-3",51.47 and 61.57 and 44.36
same,MAP3K13 Normalised counts Average,"MAP3K13 mRNA, average of 3",189.707
same,MAP3K13 Normalised counts (single replicates),"MAP3K13 mRNA, replicates 1-3",181.45 and 198.83 and 188.84
same,MAP3K14 Normalised counts Average,"MAP3K14 mRNA, average of 3",43.9833
same,MAP3K14 Normalised counts (single replicates),"MAP3K14 mRNA, replicates 1-3",37.84 and 44.2 and 49.91
same,MAP3K15 Normalised counts Average,"MAP3K15 mRNA, average of 3",13.0267
same,MAP3K15 Normalised counts (single replicates),"MAP3K15 mRNA, replicates 1-3",12.38 and 17.27 and 9.43
same,MAP4K1 Normalised counts Average,"MAP4K1 mRNA, average of 3",25.6067
same,MAP4K1 Normalised counts (single replicates),"MAP4K1 mRNA, replicates 1-3",20.57 and 28.56 and 27.69
same,MAP4K2 Normalised counts Average,"MAP4K2 mRNA, average of 3",517.167
same,MAP4K2 Normalised counts (single replicates),"MAP4K2 mRNA, replicates 1-3",521.4 and 514.19 and 515.91
same,MAP4K3 Normalised counts Average,"MAP4K3 mRNA, average of 3",998.393
same,MAP4K3 Normalised counts (single replicates),"MAP4K3 mRNA, replicates 1-3",947.71 and 1044.12 and 1003.35
same,MAP4K4 Normalised counts Average,"MAP4K4 mRNA, average of 3",871.587
same,MAP4K4 Normalised counts (single replicates),"MAP4K4 mRNA, replicates 1-3",808.64 and 924.23 and 881.89
same,MAP4K5 Normalised counts Average,"MAP4K5 mRNA, average of 3",2400.42
same,MAP4K5 Normalised counts (single replicates),"MAP4K5 mRNA, replicates 1-3",2332.97 and 2437.58 and 2430.72
same,MAPK1 Normalised counts Average,"MAPK1 mRNA, average of 3",3519.07
same,MAPK1 Normalised counts (single replicates),"MAPK1 mRNA, replicates 1-3",3459.18 and 3429.68 and 3668.36
same,MAPK3 Normalised counts Average,"MAPK3 mRNA, average of 3",2954.55
same,MAPK3 Normalised counts (single replicates),"MAPK3 mRNA, replicates 1-3",2922.89 and 2952.74 and 2988.02
same,MAPK4 Normalised counts Average,"MAPK4 mRNA, average of 3",4.88
same,MAPK4 Normalised counts (single replicates),"MAPK4 mRNA, replicates 1-3",3.29 and 5.1 and 6.25
same,MAPK6 Normalised counts Average,"MAPK6 mRNA, average of 3",1788.65
same,MAPK6 Normalised counts (single replicates),"MAPK6 mRNA, replicates 1-3",1729.42 and 1778.2 and 1858.34
same,MAPK7 Normalised counts Average,"MAPK7 mRNA, average of 3",144.45
same,MAPK7 Normalised counts (single replicates),"MAPK7 mRNA, replicates 1-3",156 and 134.55 and 142.8
same,MAPK8 Normalised counts Average,"MAPK8 mRNA, average of 3",551.453
same,MAPK8 Normalised counts (single replicates),"MAPK8 mRNA, replicates 1-3",558.67 and 556.75 and 538.94
same,MAPK9 Normalised counts Average,"MAPK9 mRNA, average of 3",3428.01
same,MAPK9 Normalised counts (single replicates),"MAPK9 mRNA, replicates 1-3",3385.55 and 3472.25 and 3426.23
same,MAPK10 Normalised counts Average,"MAPK10 mRNA, average of 3",51.74
same,MAPK10 Normalised counts (single replicates),"MAPK10 mRNA, replicates 1-3",66.92 and 32.03 and 56.27
same,MAPK11 Normalised counts Average,"MAPK11 mRNA, average of 3",204.103
same,MAPK11 Normalised counts (single replicates),"MAPK11 mRNA, replicates 1-3",193.27 and 212.73 and 206.31
same,MAPK12 Normalised counts Average,"MAPK12 mRNA, average of 3",217.317
same,MAPK12 Normalised counts (single replicates),"MAPK12 mRNA, replicates 1-3",225.99 and 210.13 and 215.83
same,MAPK13 Normalised counts Average,"MAPK13 mRNA, average of 3",1105.76
same,MAPK13 Normalised counts (single replicates),"MAPK13 mRNA, replicates 1-3",1118.59 and 1094.51 and 1104.17
same,MAPK14 Normalised counts Average,"MAPK14 mRNA, average of 3",677.43
same,MAPK14 Normalised counts (single replicates),"MAPK14 mRNA, replicates 1-3",691.38 and 666.22 and 674.69
same,MAPK15 Normalised counts Average,"MAPK15 mRNA, average of 3",105.53
same,MAPK15 Normalised counts (single replicates),"MAPK15 mRNA, replicates 1-3",90.56 and 110.22 and 115.81
same,MAPKAPK2 Normalised counts Average,"MAPKAPK2 mRNA, average of 3",1630.94
same,MAPKAPK2 Normalised counts (single replicates),"MAPKAPK2 mRNA, replicates 1-3",1646.7 and 1595.77 and 1650.35
same,MAPKAPK3 Normalised counts Average,"MAPKAPK3 mRNA, average of 3",413.777
same,MAPKAPK3 Normalised counts (single replicates),"MAPKAPK3 mRNA, replicates 1-3",380.52 and 429.05 and 431.76
same,MAPKAPK5 Normalised counts Average,"MAPKAPK5 mRNA, average of 3",1446.88
same,MAPKAPK5 Normalised counts (single replicates),"MAPKAPK5 mRNA, replicates 1-3",1508.54 and 1415.94 and 1416.16
same,MARK1 Normalised counts Average,"MARK1 mRNA, average of 3",415.69
same,MARK1 Normalised counts (single replicates),"MARK1 mRNA, replicates 1-3",399.6 and 430.79 and 416.68
same,MARK2 Normalised counts Average,"MARK2 mRNA, average of 3",1522.43
same,MARK2 Normalised counts (single replicates),"MARK2 mRNA, replicates 1-3",1510.36 and 1537.56 and 1519.36
same,MARK3 Normalised counts Average,"MARK3 mRNA, average of 3",1279.49
same,MARK3 Normalised counts (single replicates),"MARK3 mRNA, replicates 1-3",1275.85 and 1283.02 and 1279.61
same,MARK4 Normalised counts Average,"MARK4 mRNA, average of 3",1238.46
same,MARK4 Normalised counts (single replicates),"MARK4 mRNA, replicates 1-3",1216.76 and 1258.7 and 1239.92
same,MAST1 Normalised counts Average,"MAST1 mRNA, average of 3",64.11
same,MAST1 Normalised counts (single replicates),"MAST1 mRNA, replicates 1-3",68.74 and 54.62 and 68.97
same,MAST2 Normalised counts Average,"MAST2 mRNA, average of 3",721.127
